Earlier results in article PMC9103764, “Pilot Study on Acute Effects of Pharmacological Intraperitoneal L-Homoarginine on Homeostasis of Lysine and Other Amino Acids in a Rat Model of Isoprenaline-Induced Takotsubo Cardiomyopathy” (International Journal of Molecular Sciences, 2022).

Design: method as in PMID 9127274
Conditions: rat; cited from earlier work

In the case of `CC(C)NCC(O)c1ccc(O)c(O)c1` (stereo not shown) [isoprenaline], the elimination half-life is given as 10 min.
